Assay results reported in patent publication US20170159129A1, “METHODS FOR DETECTING TELOMERE MAINTENANCE MECHANISMS” (priority 2015, published 2017).

System: ALT+ cell lines U2OS, Saos-2 and G-292
Assay: Flow-FISH G to C ratio assay for inhibition of ALT activity in ALT+ cell lines
Type: cell-based
Conditions: ALT+ cell lines incubated with 3 mM HU for 48 hours; untreated ALT+ lines above 0.8; ratio below 0.8 indicates a decrease in ALT activity
Description: The present disclosure is directed to a novel improvement of flow-FISH that has been adapted for quantifying ALT activity in a cell. Briefly, cells to be analyzed are first mixed with an internal standard for telomeric DNA content. In one embodiment, the 1301 cell line, a T-cell leukemia cell line with long homogeneous telomeres is used. In other embodiments, flow cytometry microbeads with telomeric oligonucleotides can also be used to provide a standard. […] In some embodiments, the labels have the same fluorescence and stability characteristics (e.g. FITC). In other embodiments, the labels for the two probes may be different and have different fluorescence and stability characteristics. […] After incubation, cells are washed in flow cytometry staining buffer and then analyzed by flow cytometry.
Relative C-strand content and relative G-strand content of the sample cells is determined, and a ratio of G content to C content calculated. First, the mean fluorescence of the probes is measured for both sample cells and standard. […] The fluorescent marker in the standard allows for identification of the internal standard and separation of its Tel G and Tel C probe fluorescence. […]

For NC(=O)NO [hydroxyurea], the “G to C ratio (relative telomeric G content to C content, relative to 1301 cell standard)” value was “below 0.8”.
